In brackets after ≈: the same amount, converted by molar mass.
Tests used:
Plasmodium falciparum [1] = experiment: In vitro inhibitory concentration against Plasmodium falciparum D6 (Sierra Leone); assay type: functional, organism-based
Plasmodium falciparum [2] = experiment: In vitro inhibitory concentration against Plasmodium falciparum W2 Indochina; assay type: functional, organism-based
Mus musculus [3] = species on record: Mus musculus; experiment: Dose that causes 50% suppression of Plasmodium berghei parasitaemia in the treated mice (Mus musculus) compared to untreated controls.; assay type: functional
Mus musculus [4] = experiment: T/C is life span of treated mice/control at a compound dose of 16,(mg/kg); assay type: functional
Mus musculus [5] = species on record: Mus musculus; experiment: Dose that causes 90% suppression of Plasmodium berghei parasitaemia in the treated mice (Mus musculus) compared to untreated controls.; assay type: functional
Mus musculus [6] = experiment: T/C is life span of treated mice/control at a compound dose of 64 (mg/kg); assay type: functional
Mus musculus [7] = experiment: T/C is life span of treated mice/control at a compound dose of 4 (mg/kg); assay type: functional
Mus musculus [8] = experiment: T/C is life span of treated mice/control at a compound dose of 16 (mg/kg); assay type: functional

SMILES	IC50 (Plasmodium falciparum [1]) [ng/mL]	IC50 (Plasmodium falciparum [2]) [ng/mL]	SD50 (Mus musculus [3]) [mg/kg]	T/C (Mus musculus [4]) [days]	SD90 (Mus musculus [5]) [mg/kg]	T/C (Mus musculus [6]) [days]	T/C (Mus musculus [7]) [days]	T/C (Mus musculus [8]) [days]
COC(=O)CCC(O[C@H]1O[C@@H]2OC3(C)CC[C@H]4[C@H](C)CCC([C@H]1C)C24OO3)c1ccc(Br)cc1 (stereo not given in full)	1.01 (≈ 1.87 nM)	0.62 (≈ 1.15 nM)	–	–	–	–	–	–
C[C@@H]1CCC2[C@@H](C)[C@@H](OC(CCC(=O)O)c3ccc(Br)cc3)O[C@@H]3OC4(C)CC[C@@H]1C23OO4 (stereo not given in full)	1.36 (≈ 2.59 nM)	0.419 (≈ 0.797 nM)	–	–	–	–	–	–
C[C@@H]1CCC2[C@@H](C)[C@H](OC(CCC(=O)O)c3ccc(Cl)cc3)O[C@@H]3OC4(C)CC[C@@H]1C23OO4 (stereo not given in full)	0.38 (≈ 0.79 nM)	0.357 (≈ 0.742 nM)	14.39	3.8	45.04	4.8	2.3	–
C[C@H]1C(Oc2ccc(C(=O)[O-])cc2)O[C@@H]2O[C@]3(C)CC[C@H]4[C@H](C)CCC1C24OO3.[Na+] (stereo not given in full)	–	–	56	–	–	4.3	–	2.7
COC(=O)CC[C@@H](O[C@H]1O[C@@H]2O[C@@]3(C)CC[C@H]4[C@H](C)CCC([C@H]1C)[C@@]24OO3)c1ccc(Cl)cc1 (stereo not given in full)	0.391 (≈ 0.79 nM)	0.656 (≈ 1.33 nM)	–	–	–	–	–	–
C[C@@H]1CCC2[C@@H](C)[C@@H](OC(CCC(=O)O)c3ccc(Cl)cc3)O[C@@H]3OC4(C)CC[C@@H]1C23OO4 (stereo not given in full)	2.4 (≈ 5 nM)	1.26 (≈ 2.62 nM)	–	–	–	–	–	–
COC(=O)CCC(O[C@@H]1O[C@@H]2OC3(C)CC[C@H]4[C@H](C)CCC([C@H]1C)C24OO3)c1ccc(Br)cc1 (stereo not given in full)	0.673 (≈ 1.25 nM)	0.543 (≈ 1.01 nM)	–	–	–	–	–	–
COC(=O)CCC(O[C@H]1O[C@@H]2OC3(C)CC[C@H]4[C@H](C)CCC([C@H]1C)C24OO3)c1ccc(F)cc1 (stereo not given in full)	0.616 (≈ 1.29 nM)	0.488 (≈ 1.02 nM)	–	–	–	–	–	–
COC(=O)CC[C@@H](O[C@@H]1O[C@@H]2O[C@@]3(C)CC[C@H]4[C@H](C)CCC([C@H]1C)[C@@]24OO3)c1ccc(Cl)cc1 (stereo not given in full)	0.728 (≈ 1.47 nM)	0.629 (≈ 1.27 nM)	–	–	–	–	–	–
C[C@@H]1CCC2[C@@H](C)[C@H](OC(CCC(=O)O)c3ccc(Br)cc3)O[C@@H]3OC4(C)CC[C@@H]1C23OO4 (stereo not given in full)	0.405 (≈ 0.771 nM)	0.313 (≈ 0.596 nM)	16.26	–	48.18	5.8	2.7	3.5
COC(=O)CCC(O[C@@H]1O[C@@H]2OC3(C)CC[C@H]4[C@H](C)CCC([C@H]1C)C24OO3)c1ccc(OC)cc1 (stereo not given in full)	0.827 (≈ 1.68 nM)	0.647 (≈ 1.32 nM)	–	–	–	–	–	–
COC(=O)CCC(O[C@@H]1O[C@@H]2OC3(C)CC[C@H]4[C@H](C)CCC([C@H]1C)C24OO3)c1ccc(F)cc1 (stereo not given in full)	0.43 (≈ 0.9 nM)	0.398 (≈ 0.832 nM)	–	–	–	–	–	–
C[C@@H]1CC[C@H]2[C@@H](C)C(=O)O[C@@H]3O[C@@]4(C)CC[C@@H]1[C@]32OO4 [ARTEMISININ]	3.91 (≈ 13.9 nM)	2.14 (≈ 7.57 nM)	–	–	–	–	–	–
COc1ccc(C(CCC(=O)O)O[C@@H]2O[C@@H]3OC4(C)CC[C@H]5[C@H](C)CCC([C@H]2C)C35OO4)cc1 (stereo not given in full)	3.82 (≈ 8.01 nM)	3.45 (≈ 7.24 nM)	25.06	–	54.99	4	1.7	2.5
C[C@@H]1CCC2[C@@H](C)[C@@H](OC(CCC(=O)O)c3ccc(F)cc3)O[C@@H]3OC4(C)CC[C@@H]1C23OO4 (stereo not given in full)	2.33 (≈ 5.02 nM)	0.828 (≈ 1.78 nM)	–	–	–	–	–	–
C[C@@H]1CCC2[C@@H](C)[C@H](OC(CCC(=O)O)c3ccc(F)cc3)O[C@@H]3OC4(C)CC[C@@H]1C23OO4 (stereo not given in full)	2.21 (≈ 4.76 nM)	1.34 (≈ 2.88 nM)	28.16	–	58.07	3.3	1.5	2.8
COC(=O)CCC(O[C@H]1O[C@@H]2OC3(C)CC[C@H]4[C@H](C)CCC([C@H]1C)C24OO3)c1ccc(Cl)cc1 (stereo not given in full)	0.903 (≈ 1.82 nM)	0.794 (≈ 1.6 nM)	–	–	–	–	–	–
